Reference: patent EP0246061A2, “A benzoylurea derivative and its production and use” (SUMITOMO CHEMICAL COMPANY, LIMITED, priority 1986, dated 1987)
Where two headings read alike, the source gives them in different places.

Tests used:
Format in all cases: in vivo
[1] = test system: common mosquito (Culex pipiens pallens); assay: Emergence inhibition test on last instar larvae of common mosquito in aqueous dilute solution (Test example 1); settings: active ingredient concentration 3.5 ppm in water; 20 last instar larvae; bred until emergence; two replications
Experimental: The emulsifiable concentrates of the following present compounds prepared according to Formulation example 1 were each diluted with water so that the active ingredient concentration was 3.5 ppm. Thereafter, 100 ml of the aqueous dilute solution thus obtained was put in a 180-ml polyethylene cup, and 20 last instar larvae of common mosquito (Culex pipiens pallens) were liberated therein. The larvae were bred on a bait until emergence to obtain an emergence inhibitory ratio (two replications).

[2] = test system: tobacco cutworm (Spodoptera litura); assay: Mortality test on fourth instar larvae of tobacco cutworm on treated artificial diet (Test example 2); settings: 144 h; for mortality at 0.5 ppm: read-out: Concentration and mortality (%) 0.5 ppm; for mortality at […]: in Nicotiana tabacum, read-out: Concentration and mortality (%) […], 1.5 ppm, 2 ml on 13 g artificial diet, ten fourth instar larvae, after six days, two replications
Experimental: The emulsifiable concentrates of the following present compounds and controls prepared according to Formulation example 1 were each diluted with water to a prescribed concentration, and 2 ml of the aqueous dilute solution thus obtained was applied onto 13 g of artificial diet for tobacco cutworm (Spodoptera litura) which were then put in a polyethylene cup of 11 cm in diameter. Then, ten fourth instar larvae of tobacco cutworm were liberated therein. After six days, the dead and alive were examined to obtain mortality (two replications).

[3] = test system: rice stem borer (Chilo suppressalis); assay: Mortality test on 10-day old larvae of rice stem borer on treated artificial diet (Test example 3); settings: 192 h, 67,000-fold dilution (1.5 ppm), 1 ml on 5 g artificial diet, ten 10-day old larvae, after eight days, two replications
From the text: Then, ten 10-day old larvae of rice stem borer were liberated therein. After eight days, the dead and alive were examined to obtain mortality (two replications).

[4] = test system: diamond-back moth (Plutella xylostella) of a field strain; assay: Emergence inhibition test on third instar larvae of diamond-back moth, cabbage leaf dipping (Test example 4); settings: 200,000-fold dilution (0.5 ppm); cabbage leaf dipped 1 minute; ten third instar larvae; after nine days; corrected against untreated plot; two replications
Experimental: A circular cabbage leaf of 9.0 cm in diameter was dipped for 1 minute in the 200,000-fold aqueous dilute solutions each (corresponding to 0.5 ppm) of emulsifiable concentrates prepared from the following present compounds and controls according to Formulation example 1. After air-drying, the leaf was put in a polyethylene cup of 11 cm in diameter in which a filter paper was placed on the bottom, and ten third instar larvae of diamond-back moth (Plutella xylostella) of a field strain were liberated therein. After nine days, the number of emergence was examined to obtain an emergence inhibitory ratio (two replications).

[5] = 0.5 ppm, 2 ml on 13 g artificial diet, ten fourth instar larvae, after six days, two replications

| Structure (SMILES) | Emergence inhibitory ratio (%) [1] [%] | mortality at 0.5 ppm [2, 5] [%] | mortality at […] [2] [%] | mortality at […] [3] [%] | Emergence inhibitory ratio (%) [4] [%] | mortality at 0.5 ppm [2] [%] |
| --- | --- | --- | --- | --- | --- | --- |
| O=C(NC(=O)c1c(F)cccc1F)Nc1cc(F)c(C(F)(F)F)cc1F [(2), N-2,6-difluorobenzoyl-Nʹ-2,5-difluoro-4-trifluoromethylphenylurea] | 100 | 100 | 100 | 100 | 100 | – |
| O=C(NC(=O)c1c(F)cccc1F)Nc1cc(F)c(C(F)(F)C(F)(F)C(F)(F)F)cc1F [(7), N-2,6-difluorobenzoyl-Nʹ-2,5-difluoro-4-heptafluoropropylphenylurea] | 100 | 100 | 100 | 100 | 100 | – |
| O=C(NC(=O)c1c(F)cccc1F)Nc1cc(F)c(C(F)(F)C(F)(F)F)cc1F [(6), N-2,6-difluorobenzoyl-Nʹ-2,5-difluoro-4-pentafluoroethylphenylurea] | 100 | 100 | 100 | 80 | 100 | – |
| O=C(NC(=O)c1c(F)cccc1F)Nc1ccc(C(F)(F)F)cc1F [(1), N-2,6-difluorobenzoyl-Nʹ-2-fluoro-4-trifluoromethylphenylurea] | 100 | 80 | 100 | 90 | 100 | – |
| O=C(NC(=O)c1c(F)cccc1F)Nc1cc(Cl)c(F)c(Cl)c1F [(C), Teflubenzuron, reference compound] | – | – | – | – | 33 | 20 |
| O=C(NC(=O)c1c(F)cccc1F)Nc1ccc(C(F)(F)C(F)(F)F)cc1F [(9), N-2,6-difluorobenzoyl-Nʹ-2-fluoro-4-pentafluoroethylphenylurea] | 100 | 100 | 100 | 90 | 100 | – |
| O=C(NC(=O)c1c(F)cccc1F)Nc1ccc(Cl)cc1 [(A), Diflubenzuron, reference compound] | – | – | – | – | 11 | 5 |
| O=C(NC(=O)c1c(F)cc(F)cc1F)Nc1ccc(C(F)(F)F)cc1F [(5), N-2,4,6-trifluorobenzoyl-Nʹ-2-fluoro-4-trifluoromethylphenylurea] | 100 | 100 | 100 | 100 | 100 | – |
| O=C(NC(=O)c1c(F)cccc1F)Nc1cc(Cl)cc(C(F)(F)F)c1Cl [(F), reference compound] | – | 20 | 60 | 10 | 22 | – |
| O=C(NC(=O)c1c(F)cc(F)cc1F)Nc1cc(F)c(C(F)(F)C(F)(F)C(F)(F)F)cc1F [(8), N-2,4,6-trifluorobenzoyl-Nʹ-2,5-difluoro-4-heptafluoropropylphenylurea] | 100 | – | – | 80 | 73 | – |
| O=C(NC(=O)c1c(F)cccc1F)Nc1cc(Cl)c(C(F)(F)F)cc1F [(4), N-2,6-difluorobenzoyl-Nʹ-5-chloro-2-fluoro-4-trifluoromethylphenylurea] | 100 | 70 | 100 | 100 | 89 | – |
| CNC(=O)ON=C(C)SC [(D), Methomyl, reference compound] | – | 0 | 10 | 5 | 0 | – |
| O=C(NC(=O)c1c(F)cccc1F)Nc1ccc(Cl)cc1F [(E), reference compound] | – | 10 | 45 | 35 | 33 | – |
| O=C(NC(=O)c1c(F)cc(F)cc1F)Nc1ccc(C(F)(F)C(F)(F)F)cc1F [(10), N-2,4,6-trifluorobenzoyl-Nʹ-2-fluoro-4-pentafluoroethylphenylurea] | 100 | 100 | 100 | 80 | 100 | – |
| O=C(NC(=O)c1c(F)cc(F)cc1F)Nc1cc(F)c(C(F)(F)F)cc1F [(3), N-2,4,6-trifluorobenzoyl-Nʹ-2,5-difluoro-4-trifluoromethylphenylurea] | 100 | 100 | 100 | 90 | 89 | – |
